Reference: patent US20210161915A1, “GABA-A ANTAGONISTS FOR TREATING SUBSTANCE […]” (ASARINA PHARMA APS, priority 2018, published 2021)

Legend:
[1] = target: T1, human alpha1,beta2,gamma2 Long GABAA receptor subtype (Homo sapiens, UniProt P14867+P47870); test: Patch-clamp (Dynaflow system) current response in HEK-293 cells transfected with alpha1,beta2,gamma2 Long GABAA receptor; format: cell-based
T1 construct: expressed in transfected cells; host or cells: HEK-293
Protocol: (§1) In these tests the protocol was optimized to be similar to the physiological conditions in the synaptic cleft.
(§2) Cell culture: HEK-293 cells, permanently transfected with the human alpha1,beta,gamma and alpha4,beta,delta GABAA receptor subtypes, were seeded at a density of 3×10^4/25 cm^2 in a culture flask. The transfected cells were used for patch-clamp experiments 3 days after seeding. When using the cells for patch-clamp experiments the cells were washed twice with oxygen-bubbled extra cellular (EC) solution (see below). About 5 mL EC was then added and the cells were kept in the incubator for about 15 minutes. After 15 minutes the cells came loose from the bottom of the flask and were separated by carefully sucking a couple of times with a Pasteur pipette.
(§3) Dynaflow™ system with Resolve chip was used for patch-clamp experiments: The electrophysiological recordings from HEK-293 cells were performed under voltage-clamp conditions using patch-clamp technique and the Dynaflow™ system (Dynaflow Pro II Platform Zeiss Axiovert 25; Cellectricon AB, Sweden) with Resolve chips as application system.
(§4) Patch pipettes were pulled from borosilicate glass and polished to a resistance 2-5 MΩ when filled with suitable intracellular solution (IC) (pH was adjusted to 7.2) and immersed in bath solution (extracellular, EC) (pH is adjusted to 7.4).
(§5) The recordings were made using an Axopatch 200B amplifier, a Digidata 1322A (Axon instruments, Foster city, USA). Data were analysed using the pCLAMP software sampled at 10 kHz, filtered at 2-10 kHz and analyzed with Clampfit (versions 9.0, both from Axon instruments, Foster city, USA). No higher series resistance than 20 MΩ between pipette and cell membrane was accepted. No series resistance compensation was used. The stability of series resistance was monitored repeatedly from the time course of capacitative transients during the experiments. The measured liquid-junction potential between EC and IC was subtracted in all data presented. All experiments were performed at room temperature (21-23° C.).
(§6) All steroids were dissolved to the concentration of 6 mM in DMSO. […] End solutions were the solutions added into the wells of the chip.
(§7) Electrophysiology: After compensating for the liquid junction potential a steady holding potential of −17 mV was used in all experiments. […] By using the holding potential of −17 mV and the intracellular solution with low chloride ion concentration the chloride ions flux into the cell when the receptors were activated.
The Dynaflow system allowed application of solutions for as short as 40 ms up to minutes in time.
In the experiments, THDOC and 3alpha-OH-adiol were used as the positive GABAA receptor modulating steroids.
(§8) Different incubation times were studied to achieve the optimal time for attaining stable results and minimize the washout time.
Study design: Studies were conducted on current response mediated by chloride ion flux through the GABAA receptor. […] The same patch-clamp technique was used as described above (Example 1) using the Dynaflow™ application system. THDOC was used as positive GABAA receptor modulating steroid as it has shorter washout time compared to allopregnanolone but works with the same mechanisms on the same GABAA receptor binding site as allopregnanolone.
HEK-293 cells, permanently transfected with cDNA expressing the human alpha1,beta2,gamma2 Long GABAA receptor subtype. The tissue culture and the handling of the cells were as described in Example 1. In the patch-clamp experiments the transfected cells were used minimum two passages after defrosting and 3 days after seeding. The cells were seeded for maximal 25 times.

[2] = target: T2, human alpha4,beta,delta GABAA receptor subtype (Homo sapiens, UniProt P28472+P48169); test: Patch-clamp (Dynaflow system) current response in HEK-293 cells transfected with alpha4,beta3,delta GABAA receptor; format: cell-based
T2 construct: expressed in transfected cells; host or cells: HEK-293
Protocol: as §1, §2, §3, §4, §5, §6, §7
The Dynaflow system allowed application of solutions for as short as 40 ms up to minutes in time. […] There was no difference in response between the second and the third GABA application. Therefore, the first GABA application was always repeated twice and the second response was used in the analysis.
Washout: GABA is quite soluble in water and easy to washout from the receptor. […] Steroids on the other hand were difficult to dissolve in water and also difficult to washout from the receptor. In the experiments, THDOC and 3alpha-OH-adiol were used as the positive GABAA receptor modulating steroids. With 2 minutes washout time, 200 nM THDOC and 3alpha-OH-adiol was completely washed out as shown by neither an accumulative nor a desensitization effect.
as §8

[3] = test system: female Wistar rats; test: Resident/intruder (R/I) test of estrus cycle-dependent tolerance/withdrawal symptoms; format: in vivo, rat; settings: 1.5 mg/kg s.c. daily
Protocol: Experimental set-up: Experiments were carried out in female cycling rats. Rats have steroid variations related to ovulation similar to humans. […] The symptoms are related to the excitability changes in the brain that precedes withdrawal symptoms. Symptoms like migraine attacks and epileptic seizure(s) will arrive after a period of tolerance (Reddy & Rogawski 2009; Slawecki et al 2000, Welch K M. 2005). Symptoms in rats were investigated using a resident/intruder (R/I) test with behavioral analysis at the diestrus and the estrus phases of the estrus cycle (FIG. 3). The symptoms referred to in this Example are behavioral symptoms of withdrawal.
The frequency of behavioral symptom expression at diestrus and estrus during treatment were compared to the same behavior expression prior to treatment. The intruder rats were ovariectomized animals of the same age and size as the residents.
Animals: In total, 42 female Wistar rats (Taconics, Lille Skensved, Denmark) were used. At arrival the animals were approximately 9 weeks old and weighed 185-209 g. For identification, the rats were marked on their tails with permanent ink (PorciMark™). The animals were housed in triads at the animal facility where all experiments took place (Umea University, Umea, Sweden). A reversed light/dark cycle was used (12 h/12 h light/dark; lights off at 04:00). Food (standard chow) and water was available ad libitum. The rats were handled daily for two weeks prior to the start of testing. Nine rats were randomly selected as intruder rats and were ovariectomized. The remaining intact rats were tested for estrus cycle-dependent symptomatic behavior. The study protocol was approved by the Regional Ethics Committee of Umea, Sweden. All animal handling and experiments were performed according to Swedish legislation.
Ovariectomy of the intruder rats: Ovariectomy of the intruder rats was carried out by ligation of uterine tubes and removal of ovaries under anesthesia with 2.3% Isoflurane (Baxter Medical AB, Kista, Sweden) in oxygen (O2 flow rate 0.32 L/min). The surgical suture techniques included the use of surgical glue (Vetbond Tissue Adhesive No 1469 3M) in addition to sutures. Pain relief (Rimadyl Vet, 0.25 mg/100 g) was given daily for one week post-surgery.
Determination of estrus cycle phase: Estrus cycle phase (proestrus, estrus, metestrus and diestrus) of the rats was determined by microscope examination of vaginal smears. The smears were collected daily between 08:00 and 10:00, using a glass pipette with 50-70 μL normal saline (NaCl 0.9%), and stained with 0.2% toluidine blue. However, on the day of R/I test, the vaginal smear of a tested animal was collected immediately after the encounter. In addition, during the 3beta-hydroxy-5alpha-pregnan-20-one treatment, the smears were collected directly in the morning before injections to confirm expected estrus cycle phase. Diestrus (including metestrus) is characterized by the presence of leucocytes in smears. Both nucleated epithelial cells and cornified epithelial cells are present at diestrus but more abundantly at metestrus than at late diestrus. Estrus (including proestrus) is characterized by thick smears free from leucocytes but with abundant presence of nucleated epithelial cells (predominant in proestrus) and cornified epithelial cell (predominant at estrus). Further details are provided in Hubscher et al., 2005. […]

[4] = intended doses; cited from earlier work

T1 sequence (P14867 28-456): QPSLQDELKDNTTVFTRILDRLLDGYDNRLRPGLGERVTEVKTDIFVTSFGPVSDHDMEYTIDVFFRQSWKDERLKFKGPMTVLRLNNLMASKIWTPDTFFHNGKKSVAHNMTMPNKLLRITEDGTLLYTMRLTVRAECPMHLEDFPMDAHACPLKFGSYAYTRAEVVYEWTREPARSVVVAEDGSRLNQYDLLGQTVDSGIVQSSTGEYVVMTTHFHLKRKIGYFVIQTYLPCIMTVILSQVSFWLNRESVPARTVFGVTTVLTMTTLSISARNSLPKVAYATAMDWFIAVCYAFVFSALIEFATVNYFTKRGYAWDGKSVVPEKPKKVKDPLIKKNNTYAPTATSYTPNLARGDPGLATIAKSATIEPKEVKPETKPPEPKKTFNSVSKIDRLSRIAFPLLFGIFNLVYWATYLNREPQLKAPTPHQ
T1 sequence (P47870 25-512 limits assumed): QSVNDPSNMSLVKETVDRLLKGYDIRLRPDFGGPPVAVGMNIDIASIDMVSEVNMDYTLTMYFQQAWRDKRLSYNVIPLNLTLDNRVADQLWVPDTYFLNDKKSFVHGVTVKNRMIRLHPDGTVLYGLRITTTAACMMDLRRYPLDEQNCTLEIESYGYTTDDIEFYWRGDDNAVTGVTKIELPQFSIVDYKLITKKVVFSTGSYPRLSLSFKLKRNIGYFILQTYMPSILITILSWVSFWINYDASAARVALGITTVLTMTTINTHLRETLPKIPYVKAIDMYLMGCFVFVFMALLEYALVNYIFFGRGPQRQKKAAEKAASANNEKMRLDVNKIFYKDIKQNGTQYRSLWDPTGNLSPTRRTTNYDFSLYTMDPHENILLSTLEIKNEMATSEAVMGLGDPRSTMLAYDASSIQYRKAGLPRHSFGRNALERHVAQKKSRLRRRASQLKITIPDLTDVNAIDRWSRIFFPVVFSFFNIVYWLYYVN
T1 sequence (P18507 40-475 partner): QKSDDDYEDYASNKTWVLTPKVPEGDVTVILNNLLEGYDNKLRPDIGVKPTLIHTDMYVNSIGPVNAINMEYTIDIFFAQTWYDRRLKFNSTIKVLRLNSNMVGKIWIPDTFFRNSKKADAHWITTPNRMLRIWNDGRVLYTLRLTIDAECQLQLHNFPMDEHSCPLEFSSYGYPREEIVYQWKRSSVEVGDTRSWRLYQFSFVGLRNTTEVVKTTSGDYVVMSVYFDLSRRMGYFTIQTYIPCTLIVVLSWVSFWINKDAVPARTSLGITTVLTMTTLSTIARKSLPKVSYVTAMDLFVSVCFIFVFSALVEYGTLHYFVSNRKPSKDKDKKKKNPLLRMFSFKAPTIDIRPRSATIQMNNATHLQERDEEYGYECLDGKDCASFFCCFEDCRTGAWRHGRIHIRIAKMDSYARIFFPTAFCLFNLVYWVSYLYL
T2 sequence (P48169 36-554): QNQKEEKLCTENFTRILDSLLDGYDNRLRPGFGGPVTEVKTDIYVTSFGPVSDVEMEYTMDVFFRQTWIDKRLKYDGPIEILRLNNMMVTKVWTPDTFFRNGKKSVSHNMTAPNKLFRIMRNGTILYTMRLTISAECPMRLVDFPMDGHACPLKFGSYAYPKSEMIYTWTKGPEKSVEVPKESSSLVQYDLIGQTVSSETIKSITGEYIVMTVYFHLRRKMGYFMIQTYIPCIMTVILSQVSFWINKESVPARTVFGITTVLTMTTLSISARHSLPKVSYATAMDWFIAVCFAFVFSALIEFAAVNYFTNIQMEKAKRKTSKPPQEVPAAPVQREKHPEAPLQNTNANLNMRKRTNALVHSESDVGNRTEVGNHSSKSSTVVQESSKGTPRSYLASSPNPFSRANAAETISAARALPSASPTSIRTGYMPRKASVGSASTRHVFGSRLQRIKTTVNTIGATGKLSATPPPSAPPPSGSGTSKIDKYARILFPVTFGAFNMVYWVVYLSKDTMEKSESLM
T2 sequence (P28472 26-473): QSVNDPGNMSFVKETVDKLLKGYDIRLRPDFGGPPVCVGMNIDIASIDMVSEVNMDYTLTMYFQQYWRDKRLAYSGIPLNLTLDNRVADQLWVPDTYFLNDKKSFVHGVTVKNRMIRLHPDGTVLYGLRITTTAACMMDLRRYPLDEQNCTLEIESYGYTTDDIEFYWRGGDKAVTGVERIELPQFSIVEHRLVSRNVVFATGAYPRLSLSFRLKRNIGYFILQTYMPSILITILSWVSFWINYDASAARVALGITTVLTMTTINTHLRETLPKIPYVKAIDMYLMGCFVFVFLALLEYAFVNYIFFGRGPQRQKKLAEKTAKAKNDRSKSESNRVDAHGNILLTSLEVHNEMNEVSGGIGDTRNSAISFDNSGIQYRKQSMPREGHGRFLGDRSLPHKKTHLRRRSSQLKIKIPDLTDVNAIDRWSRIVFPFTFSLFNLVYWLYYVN
T2 sequence (O14764 17-452 partner limits assumed): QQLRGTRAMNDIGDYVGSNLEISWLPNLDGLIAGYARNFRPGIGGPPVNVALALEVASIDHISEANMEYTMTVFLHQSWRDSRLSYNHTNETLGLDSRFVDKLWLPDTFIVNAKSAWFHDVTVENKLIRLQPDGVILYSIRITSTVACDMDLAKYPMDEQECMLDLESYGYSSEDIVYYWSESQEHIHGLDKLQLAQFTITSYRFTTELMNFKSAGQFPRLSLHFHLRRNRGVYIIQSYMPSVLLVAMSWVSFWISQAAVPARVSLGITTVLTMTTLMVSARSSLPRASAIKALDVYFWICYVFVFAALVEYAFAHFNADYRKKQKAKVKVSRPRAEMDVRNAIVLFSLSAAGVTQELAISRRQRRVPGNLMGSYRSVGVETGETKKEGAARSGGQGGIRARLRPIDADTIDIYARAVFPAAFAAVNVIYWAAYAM

## CC(=O)[C@H]1CC[C@H]2[C@@H]3CC[C@H]4C[C@@H](O)CC[C@]4(C)[C@H]3CC[C@]12C [UC1010, 3beta-hydroxy-5alpha-pregnan-20-one]
[1]; 1 μM UC1010 + 30 μM GABA + 200 nM THDOC
  Imax/Emax Mean ± SEM %, antagonism of THDOC enhanced effect: −22.3±5.3%
[1]; 1 μM UC1010 + 30 μM GABA, compared to GABA alone
  Imax/Emax Mean ± SEM %, effect on GABA response: +10.3 ± 7.8%
[1]; HEK293, 0.1-1 μM UC1010 + 30 μM GABA + 200 nM THDOC, concentration-dependent experiment, read-out: Imax/Emax, max antagonism of THDOC effect
  Emax: -21 ± 4.6%
[1]; HEK293, read-out: Imax/Emax Mean ± SEM %, effect on GABA response, 1 μM UC1010 + 30 μM GABA, compared to GABA alone
  Emax at 1 µM: 10.3%
[1]; steady state (phasic effect)
  The effect of 1 μM UC1010 on 8 μM Androstanediol + 30 μM GABA, Mean ± SEM %: −30 ± 1.7%
[1]; tonic effect
  The effect of 1 μM UC1010 on 8 μM Androstanediol, baseline shift, Mean ± SEM %: −33 ± 7.6%
[2]
  The effect of 1 μM UC1010 on 0.6 μM Androstanediol + 3 μM GABA, Mean ± SEM %: −18 ± 2.0%
  The effect of 1 μM UC1010 on 0.8 μM Androstanediol + 3 μM GABA, Mean ± SEM %: −22 ± 2.6%
[2]; 1 μM, no GABA, no THDOC
  Current response of compound by itself: −0.4±0.3 pA
[2]; baseline shift without GABA
  The effect of 1 μM UC1010 on 0.1 μM THDOC alone baseline, Mean ± SEM %: −43 ± 3.5%
[2]; control, GABA alone
  The effect of 1 μM UC1010 on 3 μM GABA response, Mean ± SEM %: −6.7 ± 3.3%
[2]; steady state
  The effect of 1 μM UC1010 on 0.1 μM THDOC + 3 μM GABA, Mean ± SEM %: −26 ± 2.4%
[3]; 14 rats with symptoms
  Symptoms at diestrus during treatment in comparison to mean diestrus without treatment: significantly decreased
[3]; baseline diestrus set to 100%, baseline estrus set to 0%, n=14
  Relative effect of treatment on symptomatic behavior at diestrus: −89%
[3]; data not shown
  Estrus cycle duration or vaginal smear appearance during treatment: did not change
[3]; nine rats with symptoms in both cycles
  Symptomatic behaviors at both diestrus phases when treated compared to diestrus at baseline: less frequent
[3]; symptoms at diestrus
  Effect size, Cohen's d: 1.67
[4]
  Safety in clinical studies: shown safe
